PubChem BioAssay AID248 (DTP/NCI, 2004)
Values joined by “and” are separate entries in the source; they are usually repeats but may differ in a detail not shown here. Identical values can stand only once. Inconclusive results and toxic doses are left out.

System: L1210 leukemia ip in BDF1 mice, survival T/C
Test: NCI In Vivo Anticancer Drug Screen. Data for tumor model L1210 Leukemia (intraperitoneal) in B6D2F1 (BDF1) mice
Conditions: endpoint: mean survival time, higher = longer survival
Outline: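 Value reflects the ratio of survival in compound-treated mice to survival in vehicle-treated controls, with both groups carrying the same transplanted tumor.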

[1] = dose: 100.0 mg/kg/injection, schedule: Q01DX001 (ip), vehicle: Klucel (hydroxypropylcellulose) (HPC)
[2] = dose: 200.0 mg/kg/injection, schedule: Q01DX001 (ip), vehicle: Klucel (hydroxypropylcellulose) (HPC)
[3] = dose: 400.0 mg/kg/injection, schedule: Q01DX001 (ip), vehicle: Klucel (hydroxypropylcellulose) (HPC)
[4] = dose: 100.0 mg/kg/injection, schedule: Q04DX003 (ip), vehicle: saline with Tween-80
[5] = dose: 200.0 mg/kg/injection, schedule: Q04DX003 (ip), vehicle: saline with Tween-80
[6] = dose: 400.0 mg/kg/injection, schedule: Q04DX003 (ip), vehicle: saline with Tween-80
[7] = dose: 100.0 mg/kg/injection, schedule: Q01DX001 (ip), vehicle: carboxymethylcellulose (CMC)
[8] = dose: 200.0 mg/kg/injection, schedule: Q01DX001 (ip), vehicle: carboxymethylcellulose (CMC)
[9] = dose: 400.0 mg/kg/injection, schedule: Q01DX001 (ip), vehicle: carboxymethylcellulose (CMC)
[10] = dose: 50.0 mg/kg/injection, schedule: Q01DX001 (ip), vehicle: carboxymethylcellulose (CMC)
[11] = dose: 100.0 mg/kg/injection, schedule: Q04DX002 (ip), vehicle: saline with Tween-80
[12] = dose: 200.0 mg/kg/injection, schedule: Q04DX002 (ip), vehicle: saline with Tween-80

SMILES: NC(N)=N/N=C/c1ccccc1S(=O)(=O)O
- T/C (dose: 15.0 mg/kg/injection, schedule: Q01DX Z (ip), vehicle: saline): 92 % of control
- T/C (dose: 30.0 mg/kg/injection, schedule: Q01DX Z (ip), vehicle: saline): 95 % of control
- T/C (dose: 60.0 mg/kg/injection, schedule: Q01DX Z (ip), vehicle: saline): 94 % of control
- T/C (dose: 60.0 mg/kg/injection, schedule: Q01DX Z (oral), vehicle: other): 98 % of control
- T/C (dose: 120.0 mg/kg/injection, schedule: Q01DX Z (ip), vehicle: saline): 86 % of control
- T/C (dose: 120.0 mg/kg/injection, schedule: Q01DX Z (oral), vehicle: other): 101 % of control
- T/C (dose: 240.0 mg/kg/injection, schedule: Q01DX Z (oral), vehicle: other): 97 % of control
- T/C (dose: 480.0 mg/kg/injection, schedule: Q01DX Z (oral), vehicle: other): 98 % of control

SMILES: Nc1c(Cl)cc(Cl)c(-c2c(Cl)cc(Cl)c([N+](=O)[O-])c2Cl)c1Cl
- T/C [1]: 106 % of control
- T/C [2]: 101 % of control
- T/C [3]: 95 % of control

SMILES: O=C1OCC/C1=C/OC(=O)c1ccccc1
- T/C (dose: 100.0 mg/kg/injection, schedule: Q04DX002 (ip), vehicle: Klucel (hydroxypropylcellulose) (HPC)): 97 % of control
- T/C (dose: 200.0 mg/kg/injection, schedule: Q04DX002 (ip), vehicle: Klucel (hydroxypropylcellulose) (HPC)): 87 % of control

SMILES: CC(=O)OCC(C)(C)COS(=O)(=O)c1ccc(Br)cc1
- T/C (dose: 50.0 mg/kg/injection, schedule: Q01DX009 (ip), vehicle: saline with Tween-80): 100 % of control
- T/C (dose: 100.0 mg/kg/injection, schedule: Q01DX009 (ip), vehicle: saline with Tween-80): 89 % of control
- T/C (dose: 200.0 mg/kg/injection, schedule: Q01DX009 (ip), vehicle: saline with Tween-80): 89 % of control

SMILES: O=C(CC(=O)c1cccnc1)NC(=O)c1ccccc1
- T/C (dose: 100.0 mg/kg/injection, schedule: Q01DX001 (ip), vehicle: other): 96 % of control
- T/C (dose: 200.0 mg/kg/injection, schedule: Q01DX001 (ip), vehicle: other): 86 % of control
- T/C (dose: 400.0 mg/kg/injection, schedule: Q01DX001 (ip), vehicle: other): 89 % of control

SMILES: O=C(Nc1cccc2c1C(=O)c1cccc(Cl)c1C2=O)c1ccccc1
- T/C [4]: 87 % of control
- T/C [5]: 89 % of control
- T/C [6]: 86 % of control

SMILES: COc1ccc(CC(=O)NCCc2ccccc2)cc1
- T/C [7]: 96 % of control
- T/C [8]: 98 % of control
- T/C [9]: 96 % of control

SMILES: O=c1c2ccccc2[nH]c2cc(-n3nnc4ccccc4c3=O)ccc12
- T/C (dose: 75.0 mg/kg/injection, schedule: Q01DX001 (ip), vehicle: saline): 88 % of control
- T/C (dose: 150.0 mg/kg/injection, schedule: Q01DX001 (ip), vehicle: saline): 88 % of control
- T/C (dose: 300.0 mg/kg/injection, schedule: Q01DX001 (ip), vehicle: saline): 98 % of control

SMILES: CC/C(C)=C\CC/C(C)=C/COc1cccc(C(C)=O)c1
- T/C (dose: 75.0 mg/kg/injection, schedule: Q01DX009 (ip), vehicle: carboxymethylcellulose (CMC)): 94 % of control
- T/C (dose: 150.0 mg/kg/injection, schedule: Q01DX009 (ip), vehicle: carboxymethylcellulose (CMC)): 90 % of control
- T/C (dose: 300.0 mg/kg/injection, schedule: Q01DX009 (ip), vehicle: carboxymethylcellulose (CMC)): 92 % of control

SMILES: CCOC(=N)N1Cc2ccccc2CCc2ccccc2C1
- T/C (dose: 6.25 mg/kg/injection, schedule: Q01DX009 (ip), vehicle: Klucel (hydroxypropylcellulose) (HPC)): 95 % of control
- T/C (dose: 12.5 mg/kg/injection, schedule: Q01DX009 (ip), vehicle: Klucel (hydroxypropylcellulose) (HPC)): 101 % of control
- T/C (dose: 25.0 mg/kg/injection, schedule: Q01DX009 (ip), vehicle: Klucel (hydroxypropylcellulose) (HPC)): 101 % of control
- T/C (dose: 25.0 mg/kg/injection, schedule: Q04DX002 (ip), vehicle: Klucel (hydroxypropylcellulose) (HPC)): 102 % of control
- T/C (dose: 50.0 mg/kg/injection, schedule: Q04DX002 (ip), vehicle: Klucel (hydroxypropylcellulose) (HPC)): 97 % of control

SMILES: CCOC(=O)CC1CCN(C(=O)c2ccccc2)C(Cc2c[nH]c3ccccc23)C1=O (stereo unspecified)
- T/C (dose: 100.0 mg/kg/injection, schedule: Q01DX001 (ip), vehicle: saline): 95 % of control
- T/C (dose: 200.0 mg/kg/injection, schedule: Q01DX001 (ip), vehicle: saline): 94 % of control
- T/C (dose: 400.0 mg/kg/injection, schedule: Q01DX001 (ip), vehicle: saline): 94 % of control

SMILES: CC(C)(O)CC1=C(O)c2ccccc2C(=O)C1=O
- T/C [10]: 105 % of control
- T/C [7]: 97 % of control
- T/C [8]: 105 % of control
- T/C [9]: 105 % of control

SMILES: C[n+]1ccc(/C=C/c2ccnc3c(O)cccc23)c2ccccc21
- T/C (dose: 15.0 mg/kg/injection, schedule: Q01DX001 (ip), vehicle: saline): 112 % of control

SMILES: COc1cc2c(cc1OC)C1CCc3cc(OC)c(OC)cc3C1N=C2 (stereo unspecified)
- T/C (dose: 80.0 mg/kg/injection, schedule: Q01DX009 (ip), vehicle: saline): 102 % of control
- T/C (dose: 120.0 mg/kg/injection, schedule: Q01DX009 (ip), vehicle: saline): 93 % of control
- T/C (dose: 240.0 mg/kg/injection, schedule: Q01DX009 (ip), vehicle: saline): 93 % of control
- T/C (dose: 360.0 mg/kg/injection, schedule: Q01DX009 (ip), vehicle: saline): 93 % of control

SMILES: CC1(C)CSCC(C)(C)/C(=N/O)C1=O
- T/C (dose: 50.0 mg/kg/injection, schedule: Q04DX002 (ip), vehicle: saline with Tween-80): 101 % of control
- T/C [11]: 112 % of control
- T/C [12]: 101 % of control

SMILES: O=C1CCc2c1cc(O)c1ccc(S(=O)(=O)O)cc21
- T/C (dose: 5.0 mg/kg/injection, schedule: Q01DX001 (ip), vehicle: saline): 104 % of control
- T/C (dose: 10.0 mg/kg/injection, schedule: Q01DX001 (ip), vehicle: saline): 106 % of control
- T/C (dose: 20.0 mg/kg/injection, schedule: Q01DX001 (ip), vehicle: saline): 104 % of control
- T/C (dose: 40.0 mg/kg/injection, schedule: Q01DX001 (ip), vehicle: saline): 102 % of control

SMILES: O=C(Nc1ccc(C2=NCCN2)cc1)c1ccc(C(=O)Nc2ccc(C3=NCCN3)cc2)c2ccccc12
- T/C (dose: 3.75 mg/kg/injection, schedule: Q01DX Z (ip), vehicle: methylcellulose (MC)): 102 % of control
- T/C (dose: 7.5 mg/kg/injection, schedule: Q01DX Z (ip), vehicle: methylcellulose (MC)): 118 % of control
- T/C (dose: 15.0 mg/kg/injection, schedule: Q01DX Z (ip), vehicle: methylcellulose (MC)): 169 % of control
- T/C (dose: 30.0 mg/kg/injection, schedule: Q01DX Z (ip), vehicle: methylcellulose (MC)): 166 % of control and 170 % of control
- T/C (dose: 30.0 mg/kg/injection, schedule: Q01DX Z (oral), vehicle: carboxymethylcellulose (CMC)): 102 % of control
- T/C (dose: 120.0 mg/kg/injection, schedule: Q01DX Z (oral), vehicle: carboxymethylcellulose (CMC)): 94 % of control

SMILES: CC(C)(C)COC(=O)c1ccccc1
- T/C [7]: 102 % of control
- T/C [8]: 91 % of control
- T/C [9]: 91 % of control

SMILES: c1ccc([Si](c2ccccc2)(c2ccccc2)c2cccs2)cc1
- T/C [4]: 93 % of control
- T/C [5]: 90 % of control
- T/C [6]: 88 % of control

SMILES: O=C1C2C=CC=CC1C=C2
- T/C (dose: 50.0 mg/kg/injection, schedule: Q01DX009 (ip), vehicle: Klucel (hydroxypropylcellulose) (HPC)): 89 % of control
- T/C [1]: 92 % of control
- T/C (dose: 100.0 mg/kg/injection, schedule: Q01DX009 (ip), vehicle: Klucel (hydroxypropylcellulose) (HPC)): 112 % of control
- T/C [2]: 101 % of control
- T/C (dose: 200.0 mg/kg/injection, schedule: Q01DX009 (ip), vehicle: Klucel (hydroxypropylcellulose) (HPC)): 91 % of control
- T/C [3]: 95 % of control

SMILES: O=C1OC(=O)C2C3C=CC(C4C=CC43)C12 (stereo unspecified)
- T/C (dose: 100.0 mg/kg/injection, schedule: Q01DX009 (ip), vehicle: saline): 93 % of control
- T/C [11]: 103 % of control
- T/C (dose: 100.0 mg/kg/injection, schedule: Q04DX003 (ip), vehicle: saline): 86 % of control
- T/C (dose: 200.0 mg/kg/injection, schedule: Q01DX009 (ip), vehicle: saline): 102 % of control
- T/C [12]: 100 % of control
- T/C (dose: 200.0 mg/kg/injection, schedule: Q04DX003 (ip), vehicle: saline): 93 % of control
- T/C (dose: 400.0 mg/kg/injection, schedule: Q04DX003 (ip), vehicle: saline): 100 % of control

SMILES: Nc1c(Br)cc2c(c1Br)Cc1cc(Cl)ccc1-2
- T/C [10]: 93 % of control
- T/C [7]: 98 % of control
- T/C [8]: 93 % of control
- T/C [9]: 93 % of control

SMILES: O=C(O)COc1cc(Cl)c(Cl)cc1Cl (tested in a mixture with another compound)
- T/C (dose: 25.0 mg/kg/injection, schedule: Q01DX001 (ip), vehicle: saline): 110 % of control
- T/C (dose: 50.0 mg/kg/injection, schedule: Q01DX001 (ip), vehicle: saline): 93 % of control
